Patent US20150362481A1, “METHOD FOR THE IDENTIFICATION OF BITTER TASTING COMPOUNDS AND BITTER TASTE MODULATING COMPOUNDS” (Universitat Wien, priority 2013, published 2015)
Values joined by “and” are separate entries in the source; they are usually repeats but may differ in a detail not shown here. Identical values can stand only once.

Legend:
HGT-1 cells [1] = experiment: Proton secretion in HGT-1 cells after stimulation with bitter substances (intracellular pH, SNARF-1-AM); type: cell-based, human; conditions: 10 min stimulation, vs untreated cells
Protocol: The human gastric tumor cell line HGT-1 was used for all cell culture experiments. This cell line has been obtained from Dr. C. Laboisse (Laboratory of Pathological Anatomy, Nantes, France). The cells were cultured under standard conditions at 37° C., 95% humidity, and 5% CO2 in DMEM with 4 g/L glucose, 10% fetal bovine serum, 2% L-glutamine, and 1% penicillin/streptomycin. For the reverse transcription and the intracellular proton concentration assay, the cells were harvested using trypsin/EDTA. Cell viability has been determined using trypan blue staining for which the cells were seeded in a defined cell number in 35 mm dishes respectively in black 96-well plates. […] In a 96-well plate, a total of 100 000 HGT-1 cells were spread and allowed to settle for 24 h at 37° C., 95% humidity, and 5% CO2. Cells were washed once with Krebs-Ringer-HEPES buffer (KRHB), and incubated with the fluorescence dye SNARF-1-AM at a concentration of 3 μM for 30 min. […] As positive control, the cells were treated with 1 mM histamine. Fluorescence was analyzed at an excitation of 488 nm, whereas emission wavelengths were recorded at 580 nm and 640 nm on an Infinite 200 Pro plate reader. The ratio of the fluorescence intensities from those two emission wavelengths allows an accurate determination of pH when plotted on a calibration curve. […] The potassium buffer calibration solutions for the intracellular pH measurement consisted of 20 mM NaCl, 110 mM KCl, 1 mM CaCl2, 1 mM MgSO4, 18 mM D-glucose, and 20 mM HEPES. The pH calibration was fit to a linear regression. Intracellular proton concentration was calculated from the pH. The reduced amount of protons in the cell was calculated by log 2 transformation of the ratio between treated and untreated cells (control). The presented data is given as percent variation in comparison to untreated cells. […] Statistic: one-way Anova with post-hoc Test after Dunn's. Significant differences (p<0.05) are indicated by letters. […] Statistic: one-way Anova with post-hoc Test after Dunn's. Significant differences (p<0.05) are indicated by letters.

[2] = test system: sensorically-trained expert panel; experiment: Sensoric assessment: bitter-reduction of a bitter tasting solution; type: in vivo, human; set-up: key to Bitterness Bitter compound + Test substance: 1 = not bitter, 10 = extremely bitter; conditions: for Bitterness Bitter compound alone: scale 1 [not bitter] to 10 [extremely bitter]; for Bitterness Bitter compound + Test substance: scale 1 to 10
Protocol: For categorization of the bitter impression, a scale from 1 [not bitter] to 10 [extremely bitter] was used. For calculation of the percent reduction of bitter taste, the mean values of the rating of the expert panel for the solution of the bitter substance alone and the solution of the bitter substance in combination with the tested potential masking substance were compared. Significances were calculated using a paired, two sided student t-test and indicated by the p-values in Table 4.

[3] = test system: TAS2R10 "knockdown" HGT-1 cells; experiment: Effect of caffeine on proton secretion in TAS2R10 siRNA knockdown HGT-1 cells; type: cell-based, human; conditions: 3 mM, 10 min
Protocol: The HiPerFect transfection reagent (Qiagen) was used to transfect small interfering RNA (siRNA), targeting specifically human TAS2R10 (5′-[…]-3′; Sigma-Aldrich) into HGT-1 cells for the specific reduction of TAS2R10 expression. Cells were grown to 50% confluence in serum containing DMEM-media and incubation for 48 h was started by addition of serum-free media containing siRNA targeted against TAS2R10 (final siRNA concentration 1 nM) and HiPerFect transfection reagent (1 μL/6 pmol siRNA). Unrelated non-silencing siRNA (Qiagen) was used as negative control and siRNA targeted against Mn/Hs_MAPK1 which is known to efficiently knocks down human MAPK1 (Qiagen) was used as positive control. A mock transfection, in which only the HiPerFect transfection reagent was tested, was also carried out to exclude the effects of the transfection reagent itself. The knockdown efficiency was controlled by measuring mRNA expression of TAS2R10 using RT-qPCR as explained in example 1.
Statistics: two-way ANOVA with Student-Newman-Keuls post-hoc test, data shown as mean±SEM, n=3, tr=6.

HGT-1 cells [4] = experiment: Reduction of bitter substance induced proton secretion in HGT-1 cells by bitter-masking compounds; type: cell-based, human; conditions: 10 min
Protocol: The human gastric tumor cell line HGT-1 was used for all cell culture experiments. This cell line has been obtained from Dr. C. Laboisse (Laboratory of Pathological Anatomy, Nantes, France). The cells were cultured under standard conditions at 37° C., 95% humidity, and 5% CO2 in DMEM with 4 g/L glucose, 10% fetal bovine serum, 2% L-glutamine, and 1% penicillin/streptomycin. For the reverse transcription and the intracellular proton concentration assay, the cells were harvested using trypsin/EDTA. Cell viability has been determined using trypan blue staining for which the cells were seeded in a defined cell number in 35 mm dishes respectively in black 96-well plates. […] In a 96-well plate, a total of 100,000 HGT-1 cells were spread and allowed to settle for 24 h at 37° C., 95% humidity, and 5% CO2. Cells were washed once with KRHB and incubated with the fluorescence dye SNARF-1-AM at a concentration of 3 μM for 30 min. […] As positive control, the cells were treated with 1 mM histamine. Fluorescence was analyzed at an excitation of 488 nm and emission wavelengths were recorded at 580 nm and 640 nm on an Infinite 200 Pro plate reader. The ratio of the fluorescence intensities from those two emission wavelengths allows an accurate determination of pH when plotted on a calibration curve. […] The potassium buffer calibration solutions for the intracellular pH measurement consisted of 20 mM NaCl, 110 mM KCl, 1 mM CaCl2, 1 mM MgSO4, 18 mM D-glucose, and 20 mM HEPES. The pH calibration was fit to a linear regression curve. Intracellular proton concentration was calculated from the pH. The reduced amount of protons in the cell was calculated by log 2 transformation of the ratio between treated and untreated cells (control). The presented data is given as percent variation in comparison to untreated cells.

[5] = caffeine 500 ppm + test compound 100 ppm
[6] = theobromine 300 ppm + test compound 100 ppm
[7] = 0.3 mM theobromine + 0.03 mM test compound
[8] = 0.3 mM theobromine + 0.3 mM test compound
[9] = 3 mM caffeine + 0.03 mM test compound
[10] = 3 mM caffeine + 0.3 mM test compound
[11] = caffeine 500 ppm + test compound 25 ppm
[12] = theobromine 300 ppm + test compound 25 ppm

In the case of Cn1c(=O)c2c(ncn2C)n(C)c1=O [Caffeine, caffeine], the “Proton secretion T/C [%]” value (HGT-1 cells [1]; 0.3 μM) is reported as 25.49%, the “Proton secretion T/C [%]” value (HGT-1 cells [1]; 3 μM) is reported as 14.74% and the “Proton secretion T/C [%]” value (HGT-1 cells [1]; 30 μM) is reported as 23.43%. The “Proton secretion T/C [%]” value (HGT-1 cells [1]; 300 μM) was 17.07%, the “Proton secretion T/C [%]” value (HGT-1 cells [1]; 3000 μM) was 40.97% and the “Bitterness Bitter compound alone” value ([2]; 500 ppm) was 6.7 ± 1.1 and 4.1 ± 0.9 and 6.3 ± 1.4. The “Percent effect on proton secretion T/C [%]” value (“Percent effect … [%]” for short) ([3]; mock transfected cells) was 52.80%, the “Percent effect … [%]” value ([3]; not transfected cells) was 48.80% and the “Percent effect … [%]” value ([3]; siRNA TAS2R10 knockdown cells) was 28.58%. The “Percent increase in proton secretion T/C [%]” value (“Percent increase … [%]” for short) (HGT-1 cells [4]; 3 mM caffeine alone) was 54.79% and 54.05% and 38.75% and 52.41%.

For O=C1C[C@@H](c2ccc(O)c(O)c2)Oc2cc(O)cc(O)c21 [Eriodictyol, eriodictyol], the “% Reduction of the Bitter impression” value [2, 5] was 47%, the “Bitterness Bitter compound + Test substance” value [2, 5] was 3.5 ± 0.7 and the “% Reduction of the Bitter impression” value [2, 6] was 36%. The “Bitterness Bitter compound + Test substance” value [2, 6] was 2.4 ± 1.2, the “Percent increase … [%]” value (HGT-1 cells [4]; [7]) was 23.95% and the “Percent increase … [%]” value (HGT-1 cells [4]; [8]) was −42.86%. The “Percent increase … [%]” value (HGT-1 cells [4]; [9]) was 29.69% and the “Percent increase … [%]” value (HGT-1 cells [4]; [10]) was −33.96%.

NCCc1c[nH]cn1 [Histamine, histamine] was tested, and the “Proton secretion T/C [%]” value (HGT-1 cells [1]; 1 mM) was 36.66% and 45.70%.

COc1cc([C@@H]2CC(=O)c3c(O)cc(O)cc3O2)ccc1O [Homoeriodictyol, homoeriodictyol] was tested, and the “% Reduction of the Bitter impression” value [2, 5] was 28%, the “Bitterness Bitter compound + Test substance” value [2, 5] was 4.5 ± 1.4 and the “% Reduction of the Bitter impression” value [2, 6] was 12.5%. The “Bitterness Bitter compound + Test substance” value [2, 6] was 3.7 ± 1.3, the “Percent increase … [%]” value (HGT-1 cells [4]; 0.3 mM theobromine + 0.003 mM test compound) was 21.56% and the “Percent increase … [%]” value (HGT-1 cells [4]; [7]) was 13.79%. For the same compound, the “Percent increase … [%]” value (HGT-1 cells [4]; [8]) was −16.92%, the “Percent increase … [%]” value (HGT-1 cells [4]; [9]) was 37.99% and the “Percent increase … [%]” value (HGT-1 cells [4]; [10]) was 20.18%.

COc1cc(C[C@H]2CO[C@H](c3ccc(O)c(OC)c3)[C@H]2CO)ccc1O [Lariciresinol, lariciresinol] was tested, and the “% Reduction of the Bitter impression” value [2, 11] was 38.6%, the “Bitterness Bitter compound + Test substance” value [2, 11] was 2.9 ± 1.41 and the “% Reduction of the Bitter impression” value [2, 12] was 10.7%. For the same compound, the “Bitterness Bitter compound + Test substance” value [2, 12] was 3.7 ± 2.24, the “Percent increase … [%]” value (HGT-1 cells [4]; [7]) was 31.73% and the “Percent increase … [%]” value (HGT-1 cells [4]; [8]) was 17.55%. The “Percent increase … [%]” value (HGT-1 cells [4]; [9]) was 46.40% and the “Percent increase … [%]” value (HGT-1 cells [4]; [10]) was 21.57%.

With COc1cc(C[C@H]2COC(=O)[C@@H]2Cc2ccc(O)c(OC)c2)ccc1O [Matairesinol, matairesinol] the “% Reduction of the Bitter impression” value [2, 11] was 35.5%, the “Bitterness Bitter compound + Test substance” value [2, 11] was 2.7 ± 1.77 and the “% Reduction of the Bitter impression” value [2, 12] was 24.7%. The “Bitterness Bitter compound + Test substance” value [2, 12] was 3.4 ± 1.49, the “Percent increase … [%]” value (HGT-1 cells [4]; [7]) was 23.41% and the “Percent increase … [%]” value (HGT-1 cells [4]; [8]) was −18.25%. For the same compound, the “Percent increase … [%]” value (HGT-1 cells [4]; [9]) was 14.39% and the “Percent increase … [%]” value (HGT-1 cells [4]; [10]) was −20.43%.

For Cn1cnc2c1c(=O)[nH]c(=O)n2C [Theobromine, theobromine], the “Proton secretion T/C [%]” value (HGT-1 cells [1]; 0.03 μM) was 3.71%, the “Proton secretion T/C [%]” value (HGT-1 cells [1]; 0.3 μM) was 17.71% and the “Proton secretion T/C [%]” value (HGT-1 cells [1]; 3 μM) was 43.16%. For the same compound, the “Proton secretion T/C [%]” value (HGT-1 cells [1]; 30 μM) was 44.88%, the “Proton secretion T/C [%]” value (HGT-1 cells [1]; 300 μM) was 57.2% and the “Bitterness Bitter compound alone” value ([2]; 300 ppm) was 3.8 ± 1.8 and 4.5 ± 2.01 and 4.2 ± 1.65 and 4.3 ± 1.8.
